Data: patent US20210330611A1, “THERAPY FOR NEUROLOGICAL DISEASES/DISORDERS” (priority 2020, published 2021)
Where a name gives a salt, the structure may show the parent alone. Read-outs that look alike come from different tables or passages of the source.

Assays:
[1] = tested on: LPS-induced microglia activation; test: Image-based assay of LPS-induced microglia activation (HTS and dose response); format: cell-based, rat; settings: for inhibition at 10 µM: read-out: LPS % inhibition
[2] = tested on: fibrin-induced microglia activation; test: Image-based assay of fibrin-induced microglia activation (HTS and dose response); format: cell-based, rat; settings: for inhibition at 10 µM: read-out: Fibrin % inhibition
[3] = tested on: fibrin- and LPS-induced microglia activation; test: cells; format: cell-based, rat
primary rat microglia [4] = tested on: primary rat microglia;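 for Fibrin % cell toxicity: share of dead cells sized under 150 µm2 at 10 µM in fibrin-stimulated microglia HTS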
primary rat microglia [5] = tested on: primary rat microglia; remark: listed apart in the source;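 for Fibrin % cell toxicity: share of dead cells sized under 150 µm2 at 10 µM in fibrin-stimulated microglia HTS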
[6] = primary microglia HTS, LPS stimulation, increased cell size (>800 μm^2) as marker of activation
[7] = primary microglia HTS, fibrin stimulation, increased cell size (>800 μm^2) as marker of activation
[8] = quadrant by fibrin and LPS inhibition in HTS of 1907 compounds
[9] = Rattus norvegicus, Microglia, 48 h, primary microglia HTS, LPS stimulation, increased cell size (>800 μm^2) as marker of activation
[10] = Rattus norvegicus, Microglia, primary microglia HTS, fibrin stimulation, increased cell size (>800 μm^2) as marker of activation
[11] = Rattus norvegicus, Microglia, primary microglia HTS, LPS stimulation, compounds at 10 μM
[12] = Rattus norvegicus, Microglia, primary microglia HTS, fibrin stimulation, compounds at 10 μM
[13] = classification by fibrin and LPS inhibition, HTS at 10 μM
[14] = quadrant by fibrin and LPS inhibition, HTS at 10 μM
[15] = Rattus norvegicus, Microglia, 48 h
[16] = Rattus norvegicus, Microglia, primary HTS, 10 μM, LPS-stimulated primary microglia
[17] = Rattus norvegicus, Microglia, primary HTS, 10 μM, fibrin-stimulated primary microglia
[18] = Rattus norvegicus, Microglia, 48 h, primary microglia HTS, LPS stimulation, activation = cell size >800 μm2
[19] = Rattus norvegicus, Microglia, primary microglia HTS, fibrin stimulation, activation = cell size >800 μm2

CC(=O)[C@]1(O)Cc2c(O)c3c(c(O)c2[C@@H](O[C@H]2C[C@H](N)[C@H](O)[C@H](C)O2)C1)C(=O)c1ccccc1C3=O.Cl [Idarubicin, Idarubicin Hydrochloride]
LPS % inhibition [1, 6]: 106%
Fibrin % inhibition [2, 7]: 106%
Quadrant (FIG. 5b) [3, 8]: Q2
LPS % cell toxicity (primary rat microglia [4]): 40%
Fibrin % cell toxicity (primary rat microglia [5]): 90%

CNCCCN1c2ccccc2CCc2ccccc21 [Desipramine hydrochloride, reference compound]
inhibition at 10 µM [1, 9]: 83%
IC50 ([1]; Rattus norvegicus, Microglia, Table 7, read-out: LPS_IC50): 0.002 µM
IC50 ([2]; Rattus norvegicus, Microglia, Table 7, read-out: fib_IC50): 1.62 µM
inhibition at 10 µM [2, 10]: -2%
Activity [3]: fib/LPS
Quadrant (FIG. 5b) ([3]; Table 2, screen at 10 μM): Q1
Quadrant (FIG. 5b) [3, 8]: Q1
LPS % cell toxicity (primary rat microglia [4]; rat): 4%
Fibrin % cell toxicity (primary rat microglia [5]; rat): 1%

O=c1[nH]c(=O)n(Cl)c(=O)n1Cl [Troclosene Potassium]
inhibition at 10 µM ([1]; Rattus norvegicus, Microglia): 1%
inhibition at 10 µM ([2]; Rattus norvegicus, Microglia): -8%
Quadrant (FIG. 5b) [3]: Q4
LPS % cell toxicity (primary rat microglia [4]; rat): 0%
Fibrin % cell toxicity (primary rat microglia [5]; rat): 1%

Cc1ncc([N+](=O)[O-])n1C [Dimetridazole]
inhibition at 10 µM [1, 11]: 15%
inhibition at 10 µM [2, 12]: -16%
Quadrant (FIG. 5b) [3, 13]: Q4
LPS % cell toxicity (primary rat microglia [4]; rat): 1%
Fibrin % cell toxicity (primary rat microglia [5]; rat): 1%

CN(C)/N=N/c1[nH]cnc1C(N)=O [Dacarbazine]
inhibition at 10 µM [1, 11]: 17%
inhibition at 10 µM [2, 12]: -13%
Quadrant (FIG. 5b) [3, 13]: Q4
LPS % cell toxicity (primary rat microglia [4]; rat): 0%
Fibrin % cell toxicity (primary rat microglia [5]; rat): 0%

CC(=O)c1ccc(S(=O)(=O)NC(=O)NC2CCCCC2)cc1 [Acetohexamide]
inhibition at 10 µM [1, 11]: 14%
inhibition at 10 µM [2, 12]: 12%
Quadrant (FIG. 5b) [3, 14]: Q4
LPS % cell toxicity (primary rat microglia [4]; rat): 0%
Fibrin % cell toxicity (primary rat microglia [5]; rat): 1%

O=C(O)/C=C/C(=O)O [Fumaric Acid]
inhibition at 10 µM [1, 15]: 17%
inhibition at 10 µM ([2]; Rattus norvegicus, Microglia): 19%
Quadrant (FIG. 5b) [3]: Q4
LPS % cell toxicity (primary rat microglia [4]; rat): 0%
Fibrin % cell toxicity (primary rat microglia [5]; rat): 1%

C=C[C@H]1C[N@@]2CC[C@H]1C[C@H]2[C@H](O)c1ccnc2ccc(OC)cc12 [Quinine]
LPS % inhibition [1]: −7%
Fibrin % inhibition ([2]; primary microglia HTS, fibrin stimulation, cell size >800 μm2 as marker of activation): −32%
Quadrant (FIG. 5b) ([3]; classification by fibrin and LPS inhibition in HTS): Q4
LPS % cell toxicity (primary rat microglia [4]; rat): 0%
Fibrin % cell toxicity (primary rat microglia [5]; rat): 1%

CN(C)CCC(c1ccc(Cl)cc1)c1ccccn1 (stereo not shown) [Chlorphenamine]
inhibition at 10 µM [1, 16]: 13%
inhibition at 10 µM [2, 17]: 0%
Quadrant (FIG. 5b) [3]: Q4
LPS % cell toxicity (primary rat microglia [4]; rat): 0%
Fibrin % cell toxicity (primary rat microglia [5]; rat): 1%

Cc1cccc(Nc2ccccc2C(=O)O)c1C [Mefenamic Acid]
inhibition at 10 µM [1, 9]: 3%
inhibition at 10 µM [2, 10]: -6%
Quadrant (FIG. 5b) [3, 8]: Q4
LPS % cell toxicity (primary rat microglia [4]; rat): 1%
Fibrin % cell toxicity (primary rat microglia [5]; rat): 1%

NC[C@H]1CC[C@H](C(=O)O)CC1 [Tranexamic Acid]
inhibition at 10 µM ([1]; Rattus norvegicus, Microglia): 13%
inhibition at 10 µM ([2]; Rattus norvegicus, Microglia): -4%
Quadrant (FIG. 5b) [3]: Q4
LPS % cell toxicity (primary rat microglia [4]; rat): 0%
Fibrin % cell toxicity (primary rat microglia [5]; rat): 1%

Clc1ccc(Cn2c(CN3CCCC3)nc3ccccc32)cc1 [Clemizole Hydrochloride]
inhibition at 10 µM [1, 16]: 21%
inhibition at 10 µM [2, 17]: -38%
Quadrant (FIG. 5b) ([3]; primary HTS, 10 μM): Q4
LPS % cell toxicity (primary rat microglia [4]; rat): 1%
Fibrin % cell toxicity (primary rat microglia [5]; rat): 0%

CN(C)CCC=C1c2ccccc2C=Cc2ccccc21 [Cyclobenzaprine]
inhibition at 10 µM ([1]; Rattus norvegicus, Microglia): 35%
inhibition at 10 µM ([2]; Rattus norvegicus, Microglia): -29%
Quadrant (FIG. 5b) [3]: Q4
LPS % cell toxicity (primary rat microglia [4]; rat): 1%
Fibrin % cell toxicity (primary rat microglia [5]; rat): 0%

CCOC(=O)[C@H](CCc1ccccc1)N[C@@H](C)C(=O)N1[C@H](C(=O)O)C[C@H]2CCCC[C@@H]21 [Trandolapril]
inhibition at 10 µM ([1]; Rattus norvegicus, Microglia): 15%
inhibition at 10 µM ([2]; Rattus norvegicus, Microglia): -5%
Quadrant (FIG. 5b) [3]: Q4
LPS % cell toxicity (primary rat microglia [4]; rat): 0%
Fibrin % cell toxicity (primary rat microglia [5]; rat): 1%

c1ccc(-c2ccc(C(c3ccccc3)n3ccnc3)cc2)cc1 (stereo not shown) [Bifonazole]
inhibition at 10 µM ([1]; Rattus norvegicus, Microglia): 14%
inhibition at 10 µM ([2]; Rattus norvegicus, Microglia): -3%
Quadrant (FIG. 5b) [3]: Q4
LPS % cell toxicity (primary rat microglia [4]; rat): 0%
Fibrin % cell toxicity (primary rat microglia [5]; rat): 1%

CCN(CC)CCNC(=O)c1c(C)[nH]c(/C=C2\C(=O)Nc3ccc(F)cc32)c1C [Sunitinib]
inhibition at 10 µM [1, 11]: 101%
inhibition at 10 µM [2, 12]: 106%
Quadrant (FIG. 5b) [3, 14]: Q2
LPS % cell toxicity (primary rat microglia [4]; rat): 27%
Fibrin % cell toxicity (primary rat microglia [5]; rat): 75%

CC(=O)NC[C@H]1CN(c2ccc(N3CCOCC3)c(F)c2)C(=O)O1 [Linezolid]
inhibition at 10 µM [1, 15]: 19%
inhibition at 10 µM ([2]; Rattus norvegicus, Microglia): -18%
Quadrant (FIG. 5b) [3]: Q4
LPS % cell toxicity (primary rat microglia [4]; rat): 0%
Fibrin % cell toxicity (primary rat microglia [5]; rat): 1%

NCCNCCNCCN [Triethylenetetramine]
inhibition at 10 µM ([1]; Rattus norvegicus, Microglia): 10%
inhibition at 10 µM ([2]; Rattus norvegicus, Microglia): 3%
Quadrant (FIG. 5b) [3]: Q4
LPS % cell toxicity (primary rat microglia [4]; rat): 0%
Fibrin % cell toxicity (primary rat microglia [5]; rat): 1%

CC(Cc1ccc(O)cc1)NCC(O)c1cc(O)cc(O)c1 (stereo not shown) [Fenoterol]
inhibition at 10 µM [1, 18]: 26%
inhibition at 10 µM [2, 19]: 40%
Quadrant (FIG. 5b) [3, 8]: Q4
LPS % cell toxicity (primary rat microglia [4]; rat): 0%
Fibrin % cell toxicity (primary rat microglia [5]; rat): 0%

NC[C@@H]1O[C@H](O[C@H]2[C@@H](O)[C@H](O[C@@H]3[C@@H](O)[C@H](N)C[C@H](N)[C@H]3O[C@H]3O[C@H](CN)[C@@H](O)[C@H](O)[C@H]3N)O[C@@H]2CO)[C@H](N)[C@@H](O)[C@@H]1O.O=S(=O)(O)O [Neomycin Sulfate]
LPS % inhibition [1, 6]: 18%
Fibrin % inhibition [2, 7]: 15%
Quadrant (FIG. 5b) [3, 8]: Q4
LPS % cell toxicity (primary rat microglia [4]): 0%
Fibrin % cell toxicity (primary rat microglia [5]): 0%

C[N+](C)(C)CCOP(=O)(O)OP(=O)([O-])OC[C@H]1O[C@@H](n2ccc(N)nc2=O)[C@H](O)[C@@H]1O [Citicoline]
inhibition at 10 µM [1, 16]: 16%
inhibition at 10 µM [2, 17]: 5%
Quadrant (FIG. 5b) ([3]; primary HTS, 10 μM): Q4
LPS % cell toxicity (primary rat microglia [4]; rat): 0%
Fibrin % cell toxicity (primary rat microglia [5]; rat): 1%

CCC(COC(=O)c1cc(OC)c(OC)c(OC)c1)(c1ccccc1)N(C)C (stereo not shown) [Trimebutine]
inhibition at 10 µM ([1]; Rattus norvegicus, Microglia, primary microglia HTS, 10 μM, LPS-stimulated, cell size >800 μm^2 as marker of activation): 13%
inhibition at 10 µM ([2]; Rattus norvegicus, Microglia, primary microglia HTS, 10 μM, fibrin-stimulated, cell size >800 μm^2 as marker of activation): -11%
Quadrant (FIG. 5b) ([3]; HTS of 1907 compounds, quadrant by fibrin and LPS inhibition): Q4
LPS % cell toxicity (primary rat microglia [4]; rat): 0%
Fibrin % cell toxicity (primary rat microglia [5]; rat): 1%

CC(C)(C)NCC(O)c1cc(Cl)c(N)c(Cl)c1 (stereo not shown) [Clenbuterol]
inhibition at 10 µM [1, 16]: 25%
inhibition at 10 µM [2, 17]: 11%
Quadrant (FIG. 5b) ([3]; primary HTS, 10 μM): Q4
LPS % cell toxicity (primary rat microglia [4]; rat): 0%
Fibrin % cell toxicity (primary rat microglia [5]; rat): 1%

Prednisolone sodium phosphate [reference compound]
LPS % inhibition [1]: 96%
IC50 ([1]; read-out: LPS IC50): 4 µM
IC50 ([1]; read-out: LPS IC50 (uM) (Suppl. Table 7)): 4 µM
Fibrin % inhibition [2]: 108%
IC50 ([2]; read-out: Fibrin IC50): 0.1 µM
IC50 ([2]; read-out: Fibrin IC50 (uM) (Suppl. Table 7)): 0.1 µM
Cherry-picked Hit (Suppl. Table 7) [3]: HIT (key: HIT: Hits were defined as molecules that exhibited greater than 50% inhibition of either fibrin or LPS activation)
Hit [3]: HIT (key: HIT: Hits were defined as molecules that exhibited greater than 50% inhibition of either fibrin or LPS activation)
Quadrant (FIG. 5b) [3]: Q2
IC50 (primary rat microglia [4]): > 20 µM
LPS % cell toxicity (primary rat microglia [4]): 3%
Fibrin % cell toxicity (primary rat microglia [5]): 3%
IC50 (primary rat microglia [5]): > 20 µM

CC1CCC(C(C)C)C(O)C1 (stereo not shown) [Menthol]
inhibition at 10 µM [1, 15]: 0%
inhibition at 10 µM ([2]; Rattus norvegicus, Microglia): -20%
Quadrant (FIG. 5b) [3]: Q4
LPS % cell toxicity (primary rat microglia [4]; rat): 0%
Fibrin % cell toxicity (primary rat microglia [5]; rat): 1%

CO[C@H]1C[C@@H]2CC[C@@H](C)[C@@](O)(O2)C(=O)C(=O)N2CCCC[C@H]2C(=O)O[C@H]([C@H](C)C[C@@H]2CC[C@@H](O)[C@H](OC)C2)CC(=O)[C@H](C)/C=C(\C)[C@@H](O)[C@@H](OC)C(=O)[C@H](C)C[C@H](C)/C=C/C=C/C=C/1C [Sirolimus]
inhibition at 10 µM [1, 11]: 81%
inhibition at 10 µM [2, 12]: 108%
Quadrant (FIG. 5b) [3, 14]: Q2
LPS % cell toxicity (primary rat microglia [4]; rat): 1%
Fibrin % cell toxicity (primary rat microglia [5]; rat): 4%

CCCCOCCOCCOCc1cc2c(cc1CCC)OCO2 [Piperonyl Butoxide]
inhibition at 10 µM [1, 15]: 12%
inhibition at 10 µM ([2]; Rattus norvegicus, Microglia): 0%
Quadrant (FIG. 5b) [3]: Q4
LPS % cell toxicity (primary rat microglia [4]; rat): 0%
Fibrin % cell toxicity (primary rat microglia [5]; rat): 0%

CC(C)(C)NC(=O)[C@@H]1CN(Cc2cccnc2)CCN1C[C@@H](O)C[C@@H](Cc1ccccc1)C(=O)N[C@H]1c2ccccc2C[C@H]1O [Indinavir]
inhibition at 10 µM [1, 18]: 5%
inhibition at 10 µM [2, 19]: -22%
Quadrant (FIG. 5b) [3]: Q4
LPS % cell toxicity (primary rat microglia [4]; rat): 0%
Fibrin % cell toxicity (primary rat microglia [5]; rat): 1%

CCn1cc(C(=O)O)c(=O)c2cc3c(cc21)OCO3 [Oxolinic Acid]
inhibition at 10 µM [1, 9]: 13%
inhibition at 10 µM [2, 10]: 7%
Quadrant (FIG. 5b) [3, 8]: Q4
LPS % cell toxicity (primary rat microglia [4]; rat): 1%
Fibrin % cell toxicity (primary rat microglia [5]; rat): 0%
